Laboratory results as given in paper PMC7982521, “Studies on the Changes of Pharmacokinetics Behaviors of Phytochemicals and the Influence on Endogenous Metabolites After the Combination of Radix Bupleuri and Radix Paeoniae Alba Based on Multi-Component Pharmacokinetics and Metabolomics” (Frontiers in Pharmacology, 2021).
Like-named read-outs stand apart in the source and are kept apart here.

Assay: Multi-component pharmacokinetics in rat plasma after oral administration of RB, RPA or RB-RPA extracts (UPLC-HRMS, non-compartmental analysis)
Format: in vivo, Sprague-Dawley rats
Conditions: for AUC0-t / AUC0-∞ / Cmax / t1/2 / tmax / AUC(0-inf) / half-life: rat plasma, mean ± SD, n = 7; for change of t1/2 after combination: oral RB-RPA group vs single herbal group
Method: (Beijing, China, No. SCXK2018-0011). […] All rats were free to access the water and food until 12 h before the experiment. The animal study was reviewed and approved by the Experimental Animal Ethical Committee of Modern Research Center for Traditional Chinese Medicine, Shanxi University (animal ethic approval number: SXULL2018018), and all experimental procedures were carried out in accordance with the NIH Guide for the Care and Use of Laboratory Animals. After one week of adaptation, twenty-one rats were divided into three groups randomly, with seven rats in each group: 1) RPA group, were oral administration of Radix Paeoniae Alba extract (45 g-herb/kg); 2) RB group, were oral administration of Radix Bupleuri extract (45 g-herb/kg); 3) RB-RPA group, were oral administration of powder mixture of Radix Bupleuri and Radix Paeoniae Alba extracts (containing 45 g-herb/kg Radix Bupleuri and 45 g-herb/kg Radix Paeoniae Alba). […] Each group received intragastric administration with a volume of 10 ml/kg (rat body weight). […] All rats were free to access the water during the experiment. The blood samples at each time point were collected from seven rats. The blood samples were centrifuged at 4,000 rpm for 10 min and frozen at -80°C until analysis. Using a Thermo-Fisher Dionex UltiMate 3000 UHPLC system coupled with a Q Exactive Orbitrap-MS (Thermo-Fisher, United States) and Xcalibur workstation (Thermo-Fisher Scientific Inc.,Waltham, MA, United States) to acquire UPLC-HRMS raw data. Chromatographic separation of herb extracts and plasma samples was performed on an Acquity UPLC HSS T3 column (2.1 mm × 100 mm, 1.8 μm) maintained at 37°C. The flow rate was 0.2 ml/min and the injection volume was 5 μL. […] Mass spectrometry detection conditions were set as follows: the MS data were acquired under positive and negative ionization modes via heated electrospray ionization (HESI) source. […] The Q Exactive Orbitrap-MS has a fast positive and negative ion switching function, which could switch between positive-negative ion modes during the analysis of the same sample. So, we applied the method of switching ion modes in the detection process to quantify all analytes better. […] UPLC/MS/MS calibration and quantitation data were processed with Xcalibur workstation (Thermo-Fisher Scientific Inc., Waltham, MA, United States). For the eight components with standard reference, calculating their concentrations from the standard curves. For the other 30 components without standard reference, their concentrations were analyzed following the regression equations of homologous compounds ([Qiao et al., 2012]): paeoniflorin for P1 and M1 to M3; methylgallate for M4 to M10; saikosaponin […] and […]; saikosaponin […]; saikosaponin […]; saikosaponin B2 for P11 and M25 to […].

[1] = oral RB single extract 45 g-herb/kg
[2] = oral RB-RPA mixed extracts (45 g-herb/kg RB + 45 g-herb/kg RPA)
[3] = male, Sprague-Dawley, rat, plasma, po, 45 g/kg, oral RB single extract 45 g-herb/kg
[4] = oral administration of mixed extracts RB-RPA
[5] = oral administration of single extract RPA

| AUC0-t [1] | AUC0-∞ [1] | Cmax [1] | t1/2 [1] | tmax [1] | AUC0-t [2] | AUC0-∞ [2] | Cmax [2] | t1/2 [2] | tmax [2] | Compound | other results |
| --- | --- | --- | --- | --- | --- | --- | --- | --- | --- | --- | --- |
| 81.39 ± 36.37 ng·h/mL | 85.33 ± 40.21 ng·h/mL | 16.51 ± 8.25 ng/mL | 5.10 ± 1.21 h | 1.17 ± 0.26 h | 131.78 ± 59.75 ng·h/mL | 141.32 ± 65.28 ng·h/mL | 19.75 ± 10.49 ng/mL | 5.78 ± 2.37 h | 0.92 ± 0.20 h | CC1(C)CC[C@@]2(CO)C(=C3C=C[C@@H]4[C@@]5(C)CC[C@H](O)[C@@](C)(CO)[C@@H]5CC[C@@]4(C)[C@]3(C)C[C@H]2O)C1 [Saikogenin D] | – |
| 34.53 ± 9.88 ng·h/mL | 38.46 ± 9.92 ng·h/mL | 12.31 ± 5.03 ng/mL | 3.40 ± 1.47 h | 0.75 ± 0.16 h | 40.24 ± 15.68 ng·h/mL | 45.24 ± 14.83 ng·h/mL | 13.41 ± 6.28 ng/mL | 3.99 ± 2.19 h | 0.79 ± 0.10 h | CC1(C)CC[C@]23CO[C@@]4(C=C[C@@H]5[C@@]6(C)CC[C@H](O)C(C)(C)[C@@H]6CC[C@@]5(C)[C@]4(C)C[C@@H]2O)[C@@H]3C1 [Saikogenin E] | – |
| 156.14 ± 83.93 ng·h/mL | 159.01 ± 82.32 ng·h/mL | 30.25 ± 13.93 ng/mL | 4.01 ± 1.88 h | 1.04 ± 0.25 h | 301.08 ± 199.77 ng·h/mL | 347.02 ± 174.43 ng·h/mL | 34.09 ± 17.25 ng/mL | 6.80 ± 2.11 h | 1.17 ± 0.26 h | CC1(C)CC[C@]23CO[C@@]4(C=C[C@@H]5[C@@]6(C)CC[C@H](O)[C@@](C)(CO)[C@@H]6CC[C@@]5(C)[C@]4(C)C[C@@H]2O)[C@@H]3C1 [Saikogenin F] | – |
| 50.01 ± 16.60 ng·h/mL | 57.20 ± 17.81 ng·h/mL | 11.26 ± 4.74 ng/mL | 3.96 ± 1.59 h | 0.75 ± 0.00 h | 88.79 ± 41.87 ng·h/mL | 99.59 ± 41.70 ng·h/mL | 12.67 ± 4.42 ng/mL | 6.53 ± 2.21 h | 0.71 ± 0.10 h | CC1(C)CC[C@]23CO[C@@]4(C=C[C@@H]5[C@@]6(C)CC[C@H](O)[C@@](C)(CO)[C@@H]6CC[C@@]5(C)[C@]4(C)C[C@H]2O)[C@@H]3C1 [Saikogenin G] | – |
| – | – | – | – | – | – | – | – | – | – | C[C@H]1O[C@@H](O[C@H]2CC[C@@]3(C)[C@@H](CC[C@]4(C)[C@@H]3C=C[C@]35OC[C@@]6(CCC(C)(C)C[C@H]63)[C@@H](O)C[C@]54C)[C@]2(C)CO)[C@H](O)[C@@H](O[C@@H]2O[C@H](CO)[C@@H](O)[C@H](O)[C@H]2O)[C@H]1O [Saikosaponin A] | AUC(0-inf) [3]: 104 ± 38.6 ng·h/mL; half-life [3]: 2.13 ± 0.43 h; AUC0-t (male, Sprague-Dawley, rat, plasma, po, 45 g/kg, oral RB single extract 45 g-herb/kg, read-out: AUC0-t): 102 ± 38.5 ng·h/mL; Cmax (male, Sprague-Dawley, rat, plasma, po, 45 g/kg, oral RB single extract 45 g-herb/kg, read-out: Cmax): 68.4 ± 16.9 ng/mL; tmax (male, Sprague-Dawley, rat, plasma, po, 45 g/kg, oral RB single extract 45 g-herb/kg, read-out: tmax): 0.54 ± 0.1 h; AUC(0-inf) (male, Sprague-Dawley, rat, plasma, po, 45 g/kg, oral RB-RPA mixed extracts (45 g-herb/kg RB + 45 g-herb/kg RPA)): 176 ± 45.9 ng·h/mL; Cmax (male, Sprague-Dawley, rat, plasma, po, 45 g/kg, oral RB-RPA mixed extracts (45 g-herb/kg RB + 45 g-herb/kg RPA), read-out: Cmax): 46.5 ± 12.4 ng/mL; half-life (male, Sprague-Dawley, rat, plasma, po, oral RB-RPA mixed extracts (45 g-herb/kg RB + 45 g-herb/kg RPA)): 3.55 ± 0.57 h; AUC0-t (male, Sprague-Dawley, rat, plasma, po, oral RB-RPA mixed extracts (45 g-herb/kg RB + 45 g-herb/kg RPA), read-out: AUC0-t): 170 ± 48.2 ng·h/mL; tmax (male, Sprague-Dawley, rat, plasma, po, oral RB-RPA mixed extracts (45 g-herb/kg RB + 45 g-herb/kg RPA), read-out: tmax): 0.63 ± 0.21 h; change of t1/2 after combination (rat): longer |
| 65.14 ± 19.35 ng·h/mL | 67.92 ± 19.39 ng·h/mL | 22.33 ± 2.99 ng/mL | 2.70 ± 1.52 h | 0.67 ± 0.13 h | 98.63 ± 18.36 ng·h/mL | 104.39 ± 23.28 ng·h/mL | 28.19 ± 5.50 ng/mL | 2.89 ± 1.14 h | 0.83 ± 0.20 h | C[C@H]1O[C@@H](O[C@H]2CC[C@@]3(C)[C@@H](CC[C@]4(C)[C@@H]3C=CC3=C5CC(C)(C)CC[C@]5(CO)[C@H](O)C[C@]34C)[C@]2(C)CO)[C@H](O)[C@@H](O[C@@H]2O[C@H](CO)[C@@H](O)[C@H](O)[C@H]2O)[C@H]1O [Saikosaponin B2] | – |
| 38.82 ± 9.84 ng·h/mL | 42.15 ± 8.73 ng·h/mL | 31.12 ± 11.08 ng/mL | 2.07 ± 1.12 h | 0.50 ± 0.16 h | 51.33 ± 16.19 ng·h/mL | 53.67 ± 16.16 ng·h/mL | 20.63 ± 5.65 ng/mL | 2.53 ± 1.54 h | 0.66 ± 0.30 h | C[C@@H]1O[C@@H](O[C@@H]2[C@H](O)[C@@H](O)[C@H](O[C@H]3CC[C@@]4(C)C(CC[C@]5(C)C4C=C[C@]46OC[C@@]7(CCC(C)(C)CC74)[C@@H](O)C[C@]65C)C3(C)C)O[C@@H]2CO[C@@H]2O[C@H](CO)[C@@H](O)[C@H](O)[C@H]2O)[C@H](O)[C@H](O)[C@H]1O (stereo partly shown) [Saikosaponin C] | – |
| 16.86 ± 4.34 ng·h/mL | 19.75 ± 3.88 ng·h/mL | 14.82 ± 4.41 ng/mL | 3.81 ± 1.29 h | 0.42 ± 0.13 h | 23.18 ± 12.77 ng·h/mL | 26.03 ± 13.58 ng·h/mL | 12.94 ± 6.29 ng/mL | 3.18 ± 1.01 h | 0.42 ± 0.13 h | Acetyl-saikosaponin B2 | – |
| – | – | – | – | – | – | – | – | – | – | Paeonimetabolin II | AUC0-t [4]: 9490.91 ± 4705.90 ng·h/mL; AUC0-∞ [4]: 13198.67 ± 4477.34 ng·h/mL; Cmax [4]: 984.50 ± 452.44 ng/mL; t1/2 [4]: 9.30 ± 2.76 h; tmax [4]: 1.17 ± 0.90 h; AUC0-t [5]: 6694.27 ± 2468.69 ng·h/mL; AUC0-∞ [5]: 8022.12 ± 2764.81 ng·h/mL; Cmax [5]: 850.12 ± 292.63 ng/mL; t1/2 [5]: 9.22 ± 2.04 h; tmax [5]: 1.04 ± 0.37 h; change of AUC0-∞ after combination (rat, oral RB-RPA group vs single herbal group (RB or RPA)): significantly increased |
| – | – | – | – | – | – | – | – | – | – | Pyrogallol glucuronide | AUC0-t [4]: 643.56 ± 348.44 ng·h/mL; AUC0-∞ [4]: 825.47 ± 393.90 ng·h/mL; Cmax [4]: 47.97 ± 13.98 ng/mL; t1/2 [4]: 10.49 ± 2.78 h; tmax [4]: 2.92 ± 1.43 h; AUC0-t [5]: 262.73 ± 101.68 ng·h/mL; AUC0-∞ [5]: 336.41 ± 159.76 ng·h/mL; Cmax [5]: 34.21 ± 4.94 ng/mL; t1/2 [5]: 6.16 ± 2.02 h; tmax [5]: 2.67 ± 1.85 h; AUC0-∞ after combination relative to RPA alone (rat, oral RB-RPA vs RPA alone): 245.38%; Cmax after combination relative to RPA alone (rat, oral RB-RPA vs RPA alone): 140.22%; t1/2 after combination relative to RPA alone (rat, oral RB-RPA vs RPA alone): 170.29% |

| Compound | AUC0-t [1] | AUC0-∞ [1] | Cmax [1] | t1/2 [1] | tmax [1] | AUC0-t [2] | AUC0-∞ [2] | Cmax [2] | t1/2 [2] | tmax [2] | other results |
| --- | --- | --- | --- | --- | --- | --- | --- | --- | --- | --- | --- |
| C[C@H]1O[C@@H](O[C@H]2CC[C@@]3(C)[C@@H](CC[C@]4(C)[C@@H]3C=C[C@]35OC[C@@]6(CCC(C)(C)C[C@H]63)[C@H](O)C[C@]54C)[C@]2(C)CO)[C@H](O)[C@@H](O[C@@H]2O[C@H](CO)[C@@H](O)[C@H](O)[C@H]2O)[C@H]1O [Saikosaponin D] | 67.73 ± 18.62 ng·h/mL | 69.92 ± 17.38 ng·h/mL | 42.84 ± 11.53 ng/mL | 2.01 ± 0.34 h | 0.50 ± 0.16 h | 99.98 ± 31.48 ng·h/mL | 103.56 ± 33.67 ng·h/mL | – | 2.98 ± 0.89 h | 0.87 ± 0.38 h | change of t1/2 after combination (rat): longer |
